Data reported in PMC11520566, “Discovery of pyrazole-based analogs as CDK2 inhibitors with apoptotic-inducing activity: design, synthesis and molecular dynamics study” (RSC Advances, 2024).

Assays:
MDA-MB-468 = experiment: NCI 60 five dose assay, Breast cancer
CDK2 = experiment: Western blot of CDK2 expression in HCT-116 cells; format: cell-based; details: 3 μM, 48 h, vs vehicle treated cells
Text: The method of sodium dodecyl sulfate polyacrylamide gel electrophoresis (SDS-PAGE) is employed to separate proteins based on their size. When combined with western blotting (immunoblotting), both techniques are commonly used to identify the presence and/or relative abundance of a specific protein within a sample containing a complex mixture of proteins.[36] In this process, each sample's total protein content is loaded onto a gel and separated by electrophoresis, allowing proteins to migrate through the gel matrix under the influence of an electric current. To facilitate protein migration, the proteins are initially denatured and given a negative charge by exposure to a detergent like SDS. A molecular weight marker with known-sized bands assists in identifying proteins of interest. […] Typically, the secondary antibody is linked to an enzyme that generates luminescence upon reacting with its substrate. The intensity of the luminescence, directly correlating with the amount of protein that interacted with the antibody, is captured by a Bio-Rad Imager.[36] […]
HCT-116 cells were treated with either 3 μM of compound 4 and 1 μM of compound 9 and incubated 48 h. The cells were lysed by 1× RIPA buffer containing protease and phosphatase inhibitors to quantify the protein concentration by BCA protein assay. […]

NCI-H226 = experiment: NCI 60 five dose assay, Non-small cell lung cancer; format: cell-based, human
NCI-H23 = experiment: NCI 60 five dose assay, Non-small cell lung cancer; format: cell-based, human
OVCAR-5 = experiment: NCI 60 five dose assay, Ovarian cancer; format: cell-based, human
NCI-H322M = experiment: NCI 60 five dose assay, Non-small cell lung cancer; format: cell-based, human
TK-10 = experiment: NCI 60 five dose assay, Renal cancer; format: cell-based, human
IGROV1 = experiment: NCI 60 five dose assay, Ovarian cancer; format: cell-based, human
NCI 60 cancer cell lines = experiment: NCI 60 single dose screen, mean over full panel; format: cell-based, human; details: mean over NCI 60 cell lines; single dose 10 μM
Protocol: The newly synthesized pyrazoles 2a–g, 7a–d, 8a and b, 9, and 10 were submitted to the National Cancer Institute (NCI) Developmental Therapeutics Program (http://www.dtp.nci.nih.gov) for assessment of their potential antiproliferative activity against a panel of NCI 60 cancer cell lines. All compounds were approved for screening against the approved 60 cancer cell lines at a single dose of 10 μM. The human cancer cell lines were derived from 9 variant cancer types including leukemia, melanoma, lung, colon, CNS, ovarian, renal, prostate and breast cancers. The results are presented as percentage of growth inhibition (GI%) of the screened compounds against the full panel of cell lines.
Under sterile conditions, the cell lines were grown in RPMI 1640 media (Gibco, NY, USA) supplemented with 10% fetal bovine serum (Biocell, CA, USA), and […] cell/mL was used to test the growth inhibition activity of the synthesized compounds. The compounds with concentrations ranging from 0.01 to 100 μM were prepared in phosphate buffer saline. Each compound was initially solubilized in dimethyl sulfoxide (DMSO); however, each final dilution contained less than 1% DMSO. Solutions of different concentrations (0.2 mL) were pipetted into the separate well of a microtiter tray in duplicate. Cell culture (1.8 mL) containing a cell population of […] cells per mL was pipetted into each well. Controls, containing only phosphate buffer saline and DMSO at identical dilutions, were also prepared in the same manner. These cultures were incubated in a humidified incubator at 37 °C. The incubator was supplied with 5% CO2 atmosphere. After 48 h, the cells in each well were diluted 10 times with saline and counted using a Coulter counter. The counts were corrected for the dilution.[34]

HCT-116 cells = experiment: Flow cytometry cell cycle analysis; format: cell-based; details: 1.806 μM
Protocol: Cell cycle analysis was conducted to explore the mechanism and the mode of action of the newly synthesized compounds as anticancer agents, typically inducing cytotoxicity by activating signaling pathways that trigger apoptosis.[35] […] Compound 4 was further subjected to cell cycle analysis following the established protocols.[35]
The cell cycle analysis protocol was performed on compound 4 on HCT-116 cells. This test is based on the content of DNA measured by staining using propidium iodide. Initially, the cells were washed in PBS before being kept at 4 °C for 3 min dropwise using the vortex addition of cold 70% ethanol to avoid cell clumping and to ensure fixation as well. Then, […] of a stock of […] ribonuclease was added to selectively stain only DNA. Finally, […] of a stock solution of […] of propidium iodide was added.[35]

[1] = Homo sapiens, read-out: LC50 (the source's name)

Compound: CC(=NNc1ccc(S(N)(=O)=O)cc1)c1ccc(NN=C2C(=O)NN=C2Nc2ccccc2)cc1 [Compound 4, 4-(2-(1-(4-(2-(5-oxo-3-(phenylamino)-1,5-dihydro-4H-pyrazol-4-ylidene)hydrazinyl)phenyl)ethylidene)hydrazinyl)benzene sulfonamide]
- GI50 (MDA-MB-468; Homo sapiens, MDA-MB-468): 1.4 µM
- CC50 (MDA-MB-468; Homo sapiens, MDA-MB-468, read-out: LC50): 6.41 µM
- TGI (MDA-MB-468; MDA-MB-468): 3 µM
- expression of CDK-2 (western blot) (CDK2): inhibitions in the expression of CDK-2
- GI50 (NCI-H226; Homo sapiens): 3.31 µM
- CC50 (NCI-H226; [1]): 35.1 µM
- Percent Growth (NCI-H226; Log10 Concentration -4.0 Molar): -100%
- Percent Growth (NCI-H226; Log10 Concentration -5.0 Molar): 10%
- Percent Growth (NCI-H226; Log10 Concentration -6.0 Molar): 93%
- Percent Growth (NCI-H226; Log10 Concentration -7.0 Molar): 102%
- Percent Growth (NCI-H226; Log10 Concentration -8.0 Molar): 96%
- GI50 (NCI-H23; Homo sapiens): 2.54 µM
- CC50 (NCI-H23; [1]): 23.1 µM
- Percent Growth (NCI-H23; Log10 Concentration -4.0 Molar): -98%
- Percent Growth (NCI-H23; Log10 Concentration -5.0 Molar): -23%
- Percent Growth (NCI-H23; Log10 Concentration -6.0 Molar): 99%
- Percent Growth (NCI-H23; Log10 Concentration -7.0 Molar): 105%
- Percent Growth (NCI-H23; Log10 Concentration -8.0 Molar): 105%
- GI50 (OVCAR-5; Homo sapiens): 11 µM
- CC50 (OVCAR-5; [1]): 54.2 µM
- Percent Growth (OVCAR-5; Log10 Concentration -4.0 Molar): -88%
- Percent Growth (OVCAR-5; Log10 Concentration -5.0 Molar): 56%
- Percent Growth (OVCAR-5; Log10 Concentration -6.0 Molar): 93%
- Percent Growth (OVCAR-5; Log10 Concentration -7.0 Molar): 96%
- Percent Growth (OVCAR-5; Log10 Concentration -8.0 Molar): 95%
- GI50 (NCI-H322M; Homo sapiens): 3.72 µM
- CC50 (NCI-H322M; [1]): 41.9 µM
- Percent Growth (NCI-H322M; Log10 Concentration -4.0 Molar): -93%
- Percent Growth (NCI-H322M; Log10 Concentration -5.0 Molar): 21%
- Percent Growth (NCI-H322M; Log10 Concentration -6.0 Molar): 89%
- Percent Growth (NCI-H322M; Log10 Concentration -7.0 Molar): 99%
- Percent Growth (NCI-H322M; Log10 Concentration -8.0 Molar): 103%
- GI50 (TK-10; Homo sapiens): 18.6 µM
- CC50 (TK-10; [1]): > 100 µM
- Percent Growth (TK-10; Log10 Concentration -4.0 Molar): -25%
- Percent Growth (TK-10; Log10 Concentration -5.0 Molar): 78%
- Percent Growth (TK-10; Log10 Concentration -6.0 Molar): 101%
- Percent Growth (TK-10; Log10 Concentration -7.0 Molar): 102%
- Percent Growth (TK-10; Log10 Concentration -8.0 Molar): 97%
- GI50 (IGROV1; Homo sapiens, IGROV-1): 4.5 µM
- CC50 (IGROV1; Homo sapiens, IGROV-1, read-out: LC50 (the source's name)): 43.2 µM
- Percent Growth (IGROV1; Log10 Concentration -4.0 Molar): -97%
- Percent Growth (IGROV1; Log10 Concentration -5.0 Molar): 32%
- Percent Growth (IGROV1; Log10 Concentration -6.0 Molar): 85%
- Percent Growth (IGROV1; Log10 Concentration -7.0 Molar): 94%
- Percent Growth (IGROV1; Log10 Concentration -8.0 Molar): 90%
- mean GI% (NCI 60 cancer cell lines): 96.47%
- cell cycle result (HCT-116 cells): apoptotic cell growth arrest occurring at the G1 phase
- %G2/M (HCT-116 cells; control 6.82): 3.79%
- %S (HCT-116 cells; control 33.81): 23.05%
- %G0/G1 (HCT-116 cells; control 59.37): 73.16%
- cell cycle result (HCT-116 cells; listed as cpd4): cell growth arrest@ G1
